From patent US8324263B2, “Microbiocidally active carboxamides” (Syngenta Crop Protection, LLC, priority 2007, dated 2012)

Columns and labels:
Botrytis cinerea = test: Action against Botrytis cinerea - fungal growth assay; type: cell-based; conditions: 0.002% active ingredient, PDB broth, 24° C., photometric after 3-4 days
Protocol: Conidia of the fungus from cryogenic storage are directly mixed into nutrient broth (PDB potato dextrose broth). After placing a (DMSO) solution of the test compounds (0.002% active ingredient) into a microtiter plate (96-well format) the nutrient broth containing the fungal spores is added.

SMILES	melting point [°C]	inhibition at 0.002 % strength (Botrytis cinerea; Botrytis cinerea) [%]	fungal growth inhibition (Botrytis cinerea) [%]
Cc1cc(Br)cc(C)c1OCC(C)NC(=O)c1cn(C)nc1C(F)F (centres unmarked) [Compound 1.168, 3-difluoromethyl-1-methyl-1H-pyrazole-4-carboxylic acid [2-(4-bromo-2,6-dimethyl-phenoxy)-1-methyl-ethyl]-amide]	119 to 121		
CC(COc1ncc(C(F)(F)F)cc1Cl)NC(=O)c1cn(C)nc1C(F)F (centres unmarked) [Compound 1.239, 3-difluoromethyl-1-methyl-1H-pyrazole-4-carboxylic acid [2-(3-chloro-5-trifluoromethyl-pyridin-2-yloxy)-1-methyl-ethyl]-amide]	115 to 118	50	
CC(COc1c(Br)cc(Br)cc1Br)NC(=O)c1cn(C)nc1C(F)F (centres unmarked) [Compound 1.193, 3-difluoromethyl-1-methyl-1H-pyrazole-4-carboxylic acid [1-methyl-2-(2,4,6-tribromo-phenoxy)-ethyl]-amide]	122 to 124		
Cn1cc(C(=O)NC2(COc3ccc(Cl)cc3)CC2)c(C(F)F)n1 [Compound 1.221]			50
